Results from patent US20140179624A1, “CYTOPROTECTIVE DERIVATIVES OF AVICIN D AND METHODS OF MAKING AND USING THEREOF” (Research Development Foundation, priority 2012, published 2014).

Assays:
NF-κB [1] = experiment: Inhibition of NF-κB activation (FIG. 2A); format: cell-based; conditions: compared with dexamethasone
IL-6 = experiment: Expression of constitutive and TNF-induced IL-6 (FIG. 2B); format: cell-based
NF-κB [2] = experiment: TNF-induced p(IL6-κB)350hu.IL6P-Luc luciferase reporter in HEK 293T cells with and without GR (FIG. 3); format: cell-based
Text: FIG. 3 is graph showing the expression of glucocorticoid receptor (GR) in HEK293T cells with and without GR.
However, TNF-induced activation of p(IL6-κB)350hu.IL6P-Luc was inhibited by both avicin D and Dex in HEK 293T cells transfected with GR (FIG. 3). […] This observation supports the notion that avicins are not able to induce GR transactivation.

[3] = biological target: T1, glucocorticoid receptor (GR) (Homo sapiens, UniProt P04150); experiment: Phosphorylation of GR Ser-211 (FIG. 4); format: cell-based; conditions: even after 16 hours
T1 sequence (P04150 1-777): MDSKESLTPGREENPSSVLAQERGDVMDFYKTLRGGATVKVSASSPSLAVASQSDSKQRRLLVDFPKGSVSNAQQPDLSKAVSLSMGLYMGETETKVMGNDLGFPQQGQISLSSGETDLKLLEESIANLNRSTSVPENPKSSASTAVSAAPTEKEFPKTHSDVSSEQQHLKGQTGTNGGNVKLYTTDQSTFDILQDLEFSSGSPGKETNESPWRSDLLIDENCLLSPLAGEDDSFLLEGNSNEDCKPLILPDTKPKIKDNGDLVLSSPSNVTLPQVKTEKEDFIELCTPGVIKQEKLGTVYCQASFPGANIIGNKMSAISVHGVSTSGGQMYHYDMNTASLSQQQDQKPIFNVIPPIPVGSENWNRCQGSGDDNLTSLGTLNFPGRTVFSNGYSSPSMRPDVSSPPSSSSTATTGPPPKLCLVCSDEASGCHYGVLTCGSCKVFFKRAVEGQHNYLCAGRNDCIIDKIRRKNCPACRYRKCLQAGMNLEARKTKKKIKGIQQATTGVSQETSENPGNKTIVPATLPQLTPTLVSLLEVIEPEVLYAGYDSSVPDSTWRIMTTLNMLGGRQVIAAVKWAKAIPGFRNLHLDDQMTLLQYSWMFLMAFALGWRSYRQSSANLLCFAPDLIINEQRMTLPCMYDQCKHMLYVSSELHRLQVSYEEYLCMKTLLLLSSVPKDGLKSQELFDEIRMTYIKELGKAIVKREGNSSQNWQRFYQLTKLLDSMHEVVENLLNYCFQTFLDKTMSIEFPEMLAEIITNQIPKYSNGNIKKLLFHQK

3T3-L1 cells = experiment: Adipogenesis in 3T3-L1 cells; format: cell-based
human preadipocytes = experiment: Differentiation of human preadipocytes to mature adipocytes; format: cell-based
chemotaxis = experiment: Inhibition of chemotaxis; format: cell-based; conditions: preliminary data
Text: The compositions described herein contain an effective amount of the one or more avicin derivatives. The amount to be administered can be readily determined by the attending physician based on a variety of factors including, but not limited to, age of the patient, weight of the patient, disease or disorder to be treated, presence of a pre-existing condition, and dosage form to be administered (e.g., immediate release versus modified release dosage form). Typically, the effective amount is from about 0.1 mg/kg/day to about 100 mg/kg/day, more preferably from 0.1 mg/kg/day to 50 mg/kg/day, more preferably from 0.1 mg/kg/day to 25 mg/kg/day, and most preferably from 0.1 mg/kg/day to 10 mg/kg/day. Dosages greater or less than this may be administered depending on the diseases or disorder to be treated.

cell cytotoxicity = conditions: screen of Acacia victoriae compounds; U.S. Pat. No. 6,444,233; cited from earlier work
NF-κB [4] = conditions: redox-dependant manner; cited from earlier work
[5] = tested on: NF-E2-related factor 2 (Nrf2); conditions: redox-dependant manner; cited from earlier work

In the case of `C=C[C@](C)(O)CC/C=C(\CO)C(=O)O[C@H]1[C@H](O)[C@@H](O)[C@H](O[C@@](C)(C=C)CC/C=C(\CO)C(=O)O[C@H]2C[C@]3(C(=O)O[C@@H]4O[C@H](CO)[C@@H](O)[C@H](O)[C@H]4O[C@@H]4O[C@@H](C)[C@H](O[C@@H]5O[C@@H](CO)[C@H](O)[C@H]5O)[C@@H](O[C@@H]5O[C@H](CO)[C@@H](O)[C@H](O)[C@H]5O)[C@H]4O)[C@H](O)C[C@]4(C)C(=CC[C@@H]5[C@@]6(C)CC[C@H](O[C@@H]7O[C@H](CO[C@@H]8O[C@H](C)[C@H](O)[C@H](O)[C@H]8O[C@@H]8OC[C@@H](O)[C@H](O)[C@H]8O)[C@@H](O)[C@H](O)[C@H]7NC(C)=O)C(C)(C)[C@@H]6CC[C@]54C)[C@@H]3CC2(C)C)O[C@@H]1C` [Avicin D], the “activation of NF-κB” value (NF-κB [1]) is reported as “inhibits activation of NF-κB in a similar manner to dexamethasone”, the “expression of constitutive and TNF-induced IL-6” value (IL-6) is reported as “suppresses the expression of both constituitive and TNF-induced IL-6” and the “TNF-induced activation of p(IL6-κB)350hu.IL6P-Luc” value (NF-κB [2]; HEK 293T cells transfected with GR) is reported as “inhibited”. The luciferase activity (NF-κB [2]; wild type HEK 293T cells (without GR)) was “neither avicin D nor dexamethasone had an effect”, the “phosphorylation of Ser-211” value [3] was “does not enhance phosphorylation of Ser-211” and the “PKA-mediated CREB activity” value (3T3-L1 cells) was “inhibited PKA-mediated CREB activity”. For the same molecule, the “adipolysis and adipocyte apoptosis” value (3T3-L1 cells) was “did not affect”, the preadipocyte differentiation (3T3-L1 cells) was “suppressed preadipocyte differentiation” and the adipogenesis (3T3-L1 cells; 3T3-L1 cells) was “inhibit adipogenesis”. The intracellular triglyceride level (3T3-L1 cells; 3T3-L1 cells) was “reduce intracellular triglyceride level in a dose-dependent manner”, the “expression and secretion of adiponectin” value (3T3-L1 cells; in adipocytes) was “increased the expression and secretion of adiponectin” and the “differentiation of human preadipocytes to mature adipocytes” value (human preadipocytes) was “inhibited the differentiation of human preadipocytes to mature adipocytes”. For the same molecule, the intracellular triglyceride levels (human preadipocytes) was “reduced intracellular triglyceride levels”, the inhibition of chemotaxis (chemotaxis) was “effective at inhibiting chemotaxis at picomolar and nanomolar concentrations” and the “induction of cell cytotoxicity” value (cell cytotoxicity) was “significant activity”. The NF-κB inhibition (NF-κB [4]) was “inhibit NF-κB” and the Nrf2 activation [5] was “activate NF-E2-related factor 2 (Nrf2)”.

For `C=C[C@](C)(O)CC/C=C(\C)C(=O)O[C@H]1[C@H](O)[C@@H](O)[C@H](O[C@@](C)(C=C)CC/C=C(\CO)C(=O)O[C@H]2C[C@]3(C(=O)O[C@@H]4O[C@H](CO)[C@@H](O)[C@H](O)[C@H]4O[C@@H]4O[C@@H](C)[C@H](O[C@@H]5O[C@@H](CO)[C@H](O)[C@H]5O)[C@@H](O[C@@H]5O[C@H](CO)[C@@H](O)[C@H](O)[C@H]5O)[C@H]4O)[C@H](O)C[C@]4(C)C(=CC[C@@H]5[C@@]6(C)CC[C@H](O[C@@H]7O[C@H](CO[C@@H]8O[C@H](C)[C@H](O)[C@H](O)[C@H]8O[C@@H]8OC[C@@H](O)[C@H](O)[C@H]8O)[C@@H](O)[C@H](O)[C@H]7NC(C)=O)C(C)(C)[C@@H]6CC[C@]54C)[C@@H]3CC2(C)C)O[C@@H]1C` [avicin G], the “induction of cell cytotoxicity” value (cell cytotoxicity) is given as “significant activity”.
